Experimental data reported in patent EP0158545A1, “[Alpha-(alkylaminomethyl)-benzylthio]-acetic-acid derivatives, process for their preparation and their therapeutic use” (priority 1984, dated 1985).
“Also recorded” adds a separate entry of the source.

Legend:
chiens [1] = assay: Cardiovascular tests in dogs, intraduodenal successive doses; format: in vivo; conditions: chien, injection I.M. de 10 mg/kg
chiens [2] = assay: Influence on isoprenaline effects, dog; format: in vivo; conditions: chien
Description: (§1) b) Sur les mêmes chiens on a étudié l'influence du produit vis à vis de l'isoprénaline et de la noradrénaline.
Avec 10,pg/kg I.V. d'isoprénaline la pression artérielle diastolique du CRL 41 252 passe de 128 à […] ([…] à 6,4 x 10^3 Pa), […]

[3] = tested on: système nerveux central (SNC); assay: General statement of CNS (antidepressant, sedative) properties; format: in vivo
chiens [4] = assay: Cardiovascular tests in dogs, intraduodenal successive doses; format: in vivo, chien
Experimental: a) Quatre chiens (poids moyen : 13,8 kg) anesthésiés au nembutal reçoivent le CRL 41 250 par voie intraduodénale, aux doses successives de 0,1 mg/kg, 0,5 mg/kg, 1 mg/kg, 2,5 mg/kg, 5 mg/kg puis 10 mg/kg. On mesure la pression artérielle, la fréquence cardiaque, le débit artériel fémoral, le débit artériel vertébral, la température rectale et on observe la coloration de la peau.
a) Deux chiens (poids moyen : 14,5 kg) reçoivent le CRL 41 252 par voie intraduodénale, aux doses successives de 0,1 mg/kg, 0,5 mg/kg, 1 mg/kg, 2,5 mg/kg, 5 mg/kg, 10 mg/kg et 20 mg/kg. On mesure la pression artérielle, la fréquence cardiaque, le débit artériel fémoral, le débit artériel vertébral, les températures rectale et cutanée et on observe la coloration de la peau.

chiens [5] = assay: Influence on noradrenaline hypertension, dog; format: in vivo; conditions: chien
Experimental: as §1
L'hyptertension à la noradrénaline (2 µg/kg I.V.) est augmentée par le CRL 41 252 ([…]), la pression artérielle systolique passe de 208 à 352 mmHg (soit environ de 2,77 x 10^4 à 4,7 x 10^4Pa) au lieu de 204 à 328 mmHg (soit environ de 2,71 à 4,3 x 10 Pa).

[6] = chien, successive I.D. doses 0,1 to 20 mg/kg

Q: How did the “débits fémoraux” value (chiens [1]) turn out when `CC(C)(C)NCC(SCC(N)=O)c1ccccc1F` (racemic) [CRL 41 252, fumaratede [α-(tertiobutylaminométhyl)-2-fluorobenzyl]-thioacétamide] was run?
A: cet effet étant confirmé par l'injection I.M. de 10 mg/kg

Q: What about the “pression artérielle diastolique, before isoprénaline” value (chiens [2]; after dose cumulée 39,1 mg/kg I.D., control 152) of the same compound?
A: 128 mmHg

Q: What about the “fréquence cardiaque, before isoprénaline” value (chiens [2]; after dose cumulée 39,1 mg/kg I.D., control 192) of the same compound?
A: 215 battements/ minute

Q: What about the “effets de l'isoprénaline” value (chiens [2]; after dose cumulée de 39,1 mg/kg I.D.) of the same compound?
A: légèrement diminués

Q: And the “pression artérielle diastolique, after isoprénaline” value (chiens [2]; isoprénaline 10,pg/kg I.V., after dose cumulée 39,1 mg/kg I.D., control 48)?
A: 58 mmHg

Q: And the “fréquence cardiaque, after isoprénaline” value (chiens [2]; isoprénaline 10,pg/kg I.V., after dose cumulée 39,1 mg/kg I.D., control 310)?
A: 302 battements/ minute

Q: And the “propriétés antidépressives et sédatives” value [3]?
A: propriétés antidépressives et sédatives

Q: What about the “pression artérielle et fréquence cardiaque” value (chiens [4]; [6]) of the same compound?
A: n'a pas d'effet sur la pression artérielle ni sur la fréquence cardiaque

Q: What about the “températures rectale et cutanée” value (chiens [4]; [6]) of the same compound?
A: augmente les températures rectale et cutanée

Q: And the “débits fémoraux” value (chiens [4]; chien, voie intraduodénale, à partir de 10 mg/kg I.D.)?
A: augmente les débits fémoraux à partir de la dose de 10 mg/kg I.D.

Q: What about the “effets vasodilatateurs (propriétés cardiovasculaires)” value (chiens [4]; general statement) of the same compound?
A: effets vasodilatateurs intéressants; also recorded: effets vasodilatateurs bénéfiques

Q: What about the “pression artérielle systolique, before noradrénaline” value (chiens [5]; after dose cumulée 39,1 mg/kg I.D., control 204) of the same compound?
A: 208 mmHg

Q: What about the “pression artérielle systolique, after noradrénaline” value (chiens [5]; noradrénaline 2 µg/kg I.V., after dose cumulée 39,1 mg/kg I.D., control 328) of the same compound?
A: 352 mmHg

Q: And the “hypertension à la noradrénaline” value (chiens [5]; noradrénaline 2 µg/kg I.V., dose cumulée de 39,1 mg/kg I.D.)?
A: augmentée
